Converted amounts (≈) assume the structure as drawn.

Test [1] concerns Streptococcus pyogenes C-203. As to the kind of experiment: In vitro antibacterial activity, agar dilution method (MIC). Conditions: horse serum 0.5%, 37° C., 18-20 hrs. In general terms: Agar dilution tests growth on a series of plates holding different concentrations.
In test [2] the test system is Staphylococcus aureus SMITH. Described as above. To be noted: 37° C., 18-20 hrs.
For test [3], the system named is Streptococcus faecalis SR 1004. The test is described as above. Conditions: horse serum 0.5%, 37° C., 18-20 hrs.
Test [4] deals with Streptococcus agalactiae SR 1247. The test is described as above. Conditions: horse serum 0.5%, 37° C., 18-20 hrs.
The subject of test [5] is Staphylococcus aureus SR1626. The test is described as above. Format: cell-based. To be noted: Staphylococcus aureus SR1626, methicillin-resistant, 37° C., 18-20 hrs.
The test system of test [6] is Staphylococcus aureus PDA 209P JC-1. Described as above. Conditions: 37° C., 18-20 hrs.
Test [7] has as its system Streptococcus pneumoniae Type I. The test is described as above. To be noted: horse serum 0.5%, 37° C., 18-20 hrs.
The test system of test [8] is Staphylococcus aureus ATCC 25923. The description is as above. Conditions: 37° C., 18-20 hrs.
Test [9] has as its system Staphylococcus aureus SR3131. The description is as above. Format: cell-based. Conditions: Staphylococcus aureus SR3131, methicillin-resistant, 37° C., 18-20 hrs.
For test [10], the system named is Staphylococcus aureus SR14. The description is as above. It counts as cell-based. To be noted: Staphylococcus aureus SR14, penicillin-resistant, 37° C., 18-20 hrs.
For test [11], the system named is Streptococcus epidermidis ATCC 14490. The test is described as above. To be noted: 37° C., 18-20 hrs.
Test [12] has as its system Staphylococcus aureus SR3626. The description is as above. It counts as cell-based. Conditions: Staphylococcus aureus SR3626, methicillin-resistant, 37° C., 18-20 hrs.
The subject of the next test is broiler chicks. The test can be described thus: Growth-stimulation test on chicks. Format: in vivo, broiler chicks (arbor acre). To be noted: 20 ppm in feed for 14 days. The source says: The growth-stimulating activities of PA-45052-A, PA-45052-B and PA-45052-E on broiler chicks (arbor acre, 8 days old) were investigated by using the known antibiotic thiopeptin as a referential agent. Chicks were fed with a feed mush (crude protein (CP) concentration 18%, each agent's concentration 20 ppm, not supplemented with other antibiotics) for 14 days in the battery brooders. The method of this experiment was as follows. After chicks were fed by floor pen with a feed (CP concentration 23%) from 0 to 8 days, they were divided into 5 groups (24 chicks a group, 12 male and 12 female) in such a way that the average weights of the groups are equal. To each group was administered PA-45052-A (20 ppm), PA-45052-B (20 ppm), PA-45052-E (20 ppm), thiopeptin (20 ppm) or only a feed (CP 18%) for 14 days. Each group was fed in cages (435×600×410 mm, each cage has 6-7 chicks) at 26°±2° C. for 14 days (up to 22 days old). Effectiveness was estimated from the increase of weight and the feed efficiency.

Turning to `CC(C)CC(C(=O)NC1C(=O)NC(CC(N)=O)C(=O)NC2C(=O)NC3C(=O)NC(C(=O)NC(C(=O)O)c4cc(O)cc(O)c4-c4cc3ccc4O)C(OC3CC(C)(N)C(O)C(C)O3)c3ccc(c(Cl)c3)Oc3cc2cc(c3OC2OC(CO)C(O)C(O)C2OC2CC(C)(N)C(O)C(C)O2)Oc2ccc(cc2Cl)C1O)N(C)C` (stereo not shown) [PA-45052-D], the MIC (as a rule, the lowest concentration found to suppress growth) in [1] turned out to be 0.2 µg/mL (≈ 0.124 µM); in [2], 0.39 µg/mL (≈ 0.243 µM); in test [3], 0.78 µg/mL (≈ 0.486 µM); in [4], 0.2 µg/mL (≈ 0.124 µM); in [5], 0.39 µg/mL (≈ 0.243 µM); in [6] it was 0.2 µg/mL (≈ 0.124 µM). Also, the minimum inhibitory concentration (MIC) in [7] was 0.2 µg/mL (≈ 0.124 µM); in test [8], 0.78 µg/mL (≈ 0.486 µM); in test [9], 0.39 µg/mL (≈ 0.243 µM); in test [10] it was 0.39 µg/mL (≈ 0.243 µM); in [11], 0.78 µg/mL (≈ 0.486 µM); in [12], 0.78 µg/mL (≈ 0.486 µM).
For `CC(C)CC(C(=O)NC1C(=O)NC(CC(N)=O)C(=O)NC2C(=O)NC3C(=O)NC(C(=O)NC(C(=O)O)c4cc(O)cc(O)c4-c4cc3ccc4O)C(OC3CC(C)(N)C(O)C(C)O3)c3ccc(c(Cl)c3)Oc3cc2cc(c3OC2OC(CO)C(O)C(O)C2O)Oc2ccc(cc2Cl)C1O)N(C)C` (stereo not shown) [PA-45052-E], the MIC in test [1] worked out at 0.39 µg/mL (≈ 0.267 µM); in [2] it was 0.78 µg/mL (≈ 0.533 µM); in [3], 1.56 µg/mL (≈ 1.07 µM); in test [4] it was 0.39 µg/mL (≈ 0.267 µM); in test [5], 0.78 µg/mL (≈ 0.533 µM); in test [6], 0.39 µg/mL (≈ 0.267 µM). Also, the MIC in test [7] was found to be 0.39 µg/mL (≈ 0.267 µM); in test [8], 0.78 µg/mL (≈ 0.533 µM); in [9] it was 0.78 µg/mL (≈ 0.533 µM); in test [10], 0.78 µg/mL (≈ 0.533 µM); in [11], 3.13 µg/mL (≈ 2.14 µM); in test [12], 0.78 µg/mL (≈ 0.533 µM).
Regarding thiopeptin [reference compound], the “FCR: feed efficiency (B/A)” value with broiler chicks (broiler chicks) came to 1.62. In the test on broiler chicks (broiler chicks 8 to 22 days old, 24 chicks), the “Increase of weight A (M = g) ± SD (average increase of weight)” value worked out at 431.5 ± 53.4 g. Also, in the test on broiler chicks (broiler chicks, control = 100), the “FCR (%), index when control group is 100” value was determined as 94.7% and the “Increase of weight (%), index when control group is 100” value was 103.7%.

The values are drawn from patent publication US5071749A, “Glycopetide antibiotic PA-45052-B” (Shionogi & Co., Ltd., priority 1987, dated 1991).
